{"source": "patent US10654848B1", "about": "“Neutrophil inflammation inhibitor and uses thereof” (Chang Gung University of Science and Technology, priority 2018, dated 2020)", "key": {"BALB/c mice [1]": {"system": "BALB/c mice", "assay": "Imiquimod-induced psoriasis-like skin inflammation in mice", "type": "in vivo, mouse", "details": "20 mg/kg intraperitoneal, 30 min before 5% IMQ cream, daily for 7 days", "experimental": "(§1) Male BALB/c mice aged 7-8 weeks were purchased from BioLASCO (Taipei, Taiwan) and maintained in a room with 12 hr light/dark cycles. Standard laboratory chow and water were available ad libitum. All animal experimental procedures were performed in accordance with guidelines and approved by the Institutional Animal Care and Use Committee of Chang Gung University.\nMale BALB/c mice aged 7-8 weeks were used for the development of the imiquimod-induced psoriatic-like plaque model. The dorsal skin of the mice were shaved and received a daily topical dose of 62.5 mg of 5% imiquimod (IMQ) cream (Aldara, MEDA Pharma, Sweden) with or without a test compound (e.g., HKI-4971) treatment by intraperitoneal injection for 7 consecutive days.\nTissue samples were fixed in 10% neutral buffered formalin and embedding in paraffin blocks. Sections of the samples were prepared at 5 μm thickness and stained with hematoxylin and eosin (H&E). For immunohistochemistry staining, the sections were incubated with primary antibodies against Ly6g, MPO, and ki67 then the secondary antibody was applied for the detection of the primary antibody according to the manufacturer's instructions of the SuperPicture Polymer Detection Kit (Thermo Fisher, USA). Finally, the section slides were subsequently stained with DAB chromogen and counterstained with hematoxylin. […]"}, "BALB/c mice [2]": {"system": "BALB/c mice", "assay": "LPS-induced acute lung injury (ALI) model in mice", "type": "in vivo, mouse", "details": "20 mg/Kg intravenous 1 hr before intratracheal LPS, 5 hrs", "experimental": "as §1\nMice were pre-treated with a candidate compound (e.g., HKI-4971), which was dissolved in 50 μl saline solution containing 10% DMSO and 20% Kolliphor EL (Sigma-Aldrich, USA), by intravenous injection. […]\nLung tissues were homogenized in PBS (50 Mm, pH 6.0) containing 0.5% (w/v) hexadecyltrimethylammonium bromide (HETAB) (Sigma-Aldrich, USA) by using the MagNA Lyser Instrument (Roche, Germany), and was further centrifuged at 12,000×g for 20 min at 4° C. to remove the insoluble material. The peroxidase activity was measured as the oxidation of o-Dianisidine dihydrochloride (Sigma-Aldrich, USA). […] The absorption was determined spectrophotometrically at 405 nm. […]\nIn this example, the Gram-negative bacterial endotoxin LPS induced ALI in mice was employed to mimic ARDS in human, and the effect of HKI-4971 was evaluated. […]"}, "BALB/c mice [3]": {"system": "BALB/c mice", "assay": "Liver and kidney function (ALT, AST, BUN, creatinine) in blood of imiquimod-induced mice", "type": "in vivo, mouse", "details": "blood samples, 20 mg/kg intraperitoneal, alone or with IMQ, 7 days; FIG. 3 (n=3)", "experimental": "In this example, the effect of HKI-4971 (or compound 13) on the development of psoriasis was investigated using the well-established psoriasis animal model, in which imiquimod (IMQ) was used to induce psoriasis-like skin inflammation. Briefly, BALB/c mice are pre-treated by intraperitoneal injection of HKI-4971 (20 mg/kg) for 30 min before 5% IMQ cream was topically administered onto the back of the mice every day for 7 days. Then, skin samples taken from these animals were subjected to microscopy examination and immunohistochemistry staining, while blood samples were subjected to analysis for liver and kidney functions. Results are depicted in FIGS. 1 to 3.\nBlood samples taken from IMQ- or IMQ+HKI-4971 treated animals were analyzed for the levels of alanine aminotransferase and aspartate transaminase, which were used as indicators for assessing liver function; and the levels of blood […] nitrogen (BUN) and creatinine (CRE), which were used as indicators for assessing the kidney function. Results are illustrated in FIG. 3."}, "human neutrophils [4]": {"system": "human neutrophils", "assay": "Elastase release in fMLF/CB-activated human neutrophils (MeO-Suc-Ala-Ala-Pro-Val-p-nitroanilide substrate)", "type": "cell-based", "details": "Neutrophil, neutrophils in response to fMLF, Table 2, read-out: IC50 for suppressing elastase release", "experimental": "(§2) Human neutrophils were obtained in lipopolysaccharide-free conditions by means of dextran sedimentation and Ficoll centrifugation.\nMethoxysuccinyl-Ala-Ala-Pro-Val-p-nitroanilide was employed as the elastase substrate for the determination of elastase release. Briefly, after supplementation with Methoxysuccinyl-Ala-Ala-Pro-Val-p-nitroanilide (100 μM), neutrophils (6×10^5/mL) were equilibrated at 37° C. for 2 min and incubated with a candidate compound at various concentrations for 5 min. Cells were then activated with fMLF (0.1 μM) for 10 min in the pre-process of CB (0.5 μg/mL) for 3 min, and changes in absorbance at 405 nm were continuously monitored to evaluate elastase release. Results are expressed as the percentage of elastase release in the drug-free control group, DMSO."}, "human neutrophils [5]": {"system": "human neutrophils", "assay": "Superoxide anion (O2•−) generation in fMLF/CB-activated human neutrophils (SOD-inhibitable ferricytochrome c reduction)", "type": "cell-based", "details": "at 10 μM concentration; FMLP/CB-induced human neutrophils; mean ± S.E.M. (n = 3-5)", "experimental": "as §2\nO2^•− production was determined based on the SOD-inhibitable reduction of ferricytochrome c. Briefly, neutrophils (6×10^5/mL) were treated with a candidate compound at 37° C. at various concentrations (0.001 to 10 μM) for 5 min after being supplementing with 0.5 mg/mL ferricytochrome c and 1 mM Ca^2+. Cells were then activated with fMLF (0.1 μM) for 10 min in the pre-process of cytochalasin B (CB, 1 μg/mL) for 3 min. Changes in absorbance with the reduction of ferricytochrome c at 550 nm were continuously monitored in a double-beam, six-cell positioner spectrophotometer with constant stirring (Hitachi U-3010, Tokyo, Japan). Calculations were based on the differences in the reactions with and without SOD (100 U ml^−1) divided by the extinction coefficient for the reduction of ferricytochrome c (E=21.1 mM^−1/10 mm)."}}, "data": [{"smiles": "Cn1nc(N)c2c(Nc3ccc(O)cc3)nc3ccccc3c21", "note": "[Compound 13, 4-(4-Hydroxyanilino)-1-methyl-1H-pyrazolo[4,3-c]quinolin-3-amine]", "values": [{"measurement": "Severity or progression of IMQ-induced psoriasis", "setting": "BALB/c mice [1]; FIG. 1", "value": "reduce the severity or progression"}, {"measurement": "Immunostaining of skin: markers for cell proliferation (ki-67) and for neutrophils (Ly6g and MPO)", "setting": "BALB/c mice [1]; FIG. 2", "value": "reduced"}, {"measurement": "MPO activity in lung tissues", "setting": "BALB/c mice [2]; FIG. 4(A) (n=3)", "value": "suppressed"}, {"measurement": "LPS-induced neutrophil infiltration and lung injury (H&E, Ly6g and MPO staining of lung sections)", "setting": "BALB/c mice [2]; FIG. 4(B)", "value": "significantly alleviated"}, {"measurement": "Liver function (alanine aminotransferase, aspartate transaminase) and kidney function (BUN, creatinine)", "setting": "BALB/c mice [3]", "value": "did not result in significant damage"}, {"measurement": "IC50", "setting": "human neutrophils [4]", "value": "32 ± 17", "unit": "nM"}]}, {"smiles": "Nc1noc2c1c(Nc1ccc(C(F)(F)F)cc1)nc1ccccc12", "note": "[Compound 30, 4-(4-Trifluoromethylanilino)isoxazolo[4,5-c]quinolin-3-amine]", "values": [{"measurement": "Superoxide Anion Inhibition %", "setting": "human neutrophils [5]", "value": "enhanced"}]}, {"smiles": "CSc1ccc(Nc2nc3ccccc3c3onc(N)c23)cc1", "note": "[Compound 25, 4-(4-Methylthioanilino)isoxazolo[4,5-c]quinolin-3-amine]", "values": [{"measurement": "Superoxide Anion Inhibition %", "setting": "human neutrophils [5]", "value": "enhanced"}]}, {"smiles": "Cc1ccc(Nc2nc3ccccc3c3onc(N)c23)cc1", "note": "[Compound 33, 4-(4-Methylanilino)isoxazolo[4,5-c]quinolin-3-amine]", "values": [{"measurement": "Superoxide Anion Inhibition %", "setting": "human neutrophils [5]", "value": "enhanced"}]}]}
